Data set [1] addresses T1, Macrophage migration inhibitory factor (Homo sapiens) (UniProt P14174).
T1 sequence (whole entry): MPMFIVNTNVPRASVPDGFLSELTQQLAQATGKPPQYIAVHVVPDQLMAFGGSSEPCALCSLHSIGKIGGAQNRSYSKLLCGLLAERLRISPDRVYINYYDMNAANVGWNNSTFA
Description: Inhibition of human purified MIF tautomerase activity at 100 uM after 30 mins.

In data set [2] the test system is PBMC. The data set can be described thus: Antiinflammatory activity in human PBMC assessed as inhibition of MIF-induced TNFalpha production at 100 uM after 21 hrs by ELISA. Format: functional.
The test system of data set [3] is PBMC. Description: Antiinflammatory activity in human PBMC assessed as inhibition of MIF-induced IL1-beta production at 100 uM after 21 hrs by ELISA. Format: functional. (In an ELISA, binding on a coated surface is turned into a signal by an enzyme label.)
Data set [4] concerns PBMC. The data set can be described thus: Antiinflammatory activity in human PBMC assessed as inhibition of MIF-induced IL-6 production at 100 uM after 21 hrs by ELISA. Format: functional.
For data set [5], the target named is T1, Macrophage migration inhibitory factor (Homo sapiens). Description: Inhibition of MIF in human PBMC assessed as MIF secretion at 100 uM after 5 hrs by ELISA.
Data set [6] is described as follows: Cytotoxicity against human PBMC assessed as cell viability measured during cytokines production assay at 100 uM after 21 hrs by MTS assay. Format: cell-based. The conditions noted are these: PBMC (peripheral blood mononuclear cells).
Data set [7] in a line: Cytotoxicity against human PBMC assessed as cell viability measured during MIF secretion assay at 100 uM after 21 hrs by MTS assay. Format: cell-based. The conditions noted are these: PBMC (peripheral blood mononuclear cells). For orientation: Formazan colour is commonly taken as a measure of viable cells.
Data set [8] concerns the target T1, Macrophage migration inhibitory factor (Homo sapiens). Description: Inhibition of human purified MIF tautomerase activity at 10 uM after 30 mins.
The test system of data set [9] is PBMC. Description: Antiinflammatory activity in human PBMC assessed as inhibition of MIF-induced IL-6 production at 30 uM after 21 hrs by ELISA. Format: functional.
In data set [10] the target is T1, Macrophage migration inhibitory factor (Homo sapiens). Description: Inhibition of MIF in human PBMC assessed as MIF secretion at 10 uM after 5 hrs by ELISA.

Structures are written as SMILES.

For 18 compounds, inhibition and cytotoxicity results are on record in ChEMBL document CHEMBL1681642, “Synthesis and biological activity of novel MIF antagonists” (Bioorg Med Chem Lett, 2011).

As a reminder, the inhibition is the change of the read-out against control, counted positive when it falls.

In the case of `O=C1c2ccccc2C(=O)N1C1CC(c2ccoc2)=NO1` (stereo not given), the inhibition was 0% in data set [1], 83% in [5], 0% in data set [8] and 49% in data set [10]. Further, the inhibition at 100 µM amounted to 26% in [2], 12% in data set [3] and 13% in data set [4]. The values for the cytotoxicity at 21 h, 100 µM in data set [6] and in data set [7] were 12% and 0%, respectively. Also, in data set [9], the inhibition at 30 µM came out at 9%.
On to `COC(=O)CC1CC(c2ccc(O)cc2)=NO1` (stereo not given), for which the inhibition was determined as 59% in data set [1], 87% in data set [5], 8% in data set [8] and 35% in data set [10]. The values for the inhibition at 100 µM in data set [2], in [3] and in [4] were 35%, 34% and 12%, respectively. Further, the cytotoxicity at 21 h, 100 µM in [6] is 10%; in data set [7] it was 8%. Also, in [9], the inhibition at 30 µM came to 11%.
On to `CC1(C(=O)O)CC(c2cn(-c3cccc(C(F)(F)F)c3)c3ccccc23)=NO1` (stereo not given), for which the inhibition in [1] worked out at 17%; in data set [5], 14%; in [8] it was 2%; in [10] it was 41%. The inhibition at 100 µM in data set [2] turned out to be 39%; in data set [3], 54%; in data set [4] it was 45%. The results for the cytotoxicity at 21 h, 100 µM in [6] and in data set [7] were 14% and 2%, respectively. The inhibition at 30 µM in data set [9] came out at 18%.
As for `OCCC1CC(c2cn(-c3cccc(C(F)(F)F)c3)c3ccccc23)=NO1` (stereo not given), the inhibition in data set [1] was 91%; in data set [5] it was 0%; in data set [8], 0%; in data set [10], 0%. Also, the inhibition at 100 µM in data set [2] was determined as 88%; in [3], 88%; in data set [4] it was 84%. The cytotoxicity at 21 h, 100 µM in data set [6] was 9%; in data set [7], 0%. In addition, the inhibition at 30 µM in [9] worked out at 60%.
Take `OCCC1CC(c2ccoc2)=NO1` (stereo not given): the inhibition in data set [1] was 23%; in [5], 58%; in data set [8] it was 3%; in [10], 39%. For the same compound, the inhibition at 100 µM in [2] came out at 11%; in data set [3] it was 0%; in data set [4], 7%. The cytotoxicity at 21 h, 100 µM was determined as 10% in data set [6] and 0% in data set [7]. The inhibition at 30 µM in data set [9] worked out at 18%.
As for `c1cc(C2=NOC(C3CCCCC3)C2)co1` (stereo not given), the inhibition in data set [1] is 54%; in data set [5] it was 35%; in data set [8] it was 23%; in data set [10], 13%. Moreover, the inhibition at 100 µM in data set [2] is 0%; in data set [3], 15%; in data set [4] it was 0%. Moreover, the cytotoxicity at 21 h, 100 µM was 1% in data set [6] and 6% in data set [7]. The inhibition at 30 µM in data set [9] was 0%.
As for `Fc1ccc(C2CC(c3ccoc3)=NO2)cc1` (stereo not given), the inhibition in [1] was found to be 41%; in [5], 51%; in data set [8], 0%; in [10], 0%. For the same compound, the inhibition at 100 µM in data set [2] is 0%; in data set [3], 47%; in data set [4], 15%. In addition, the cytotoxicity at 21 h, 100 µM in data set [6] came to 4%; in data set [7] it was 0%. Also, in data set [9], the inhibition at 30 µM is 0%.
On to `COc1ccc(C2CC(c3ccoc3)=NO2)cc1` (stereo not given), for which the inhibition in data set [1] turned out to be 72%; in data set [5], 82%; in data set [8], 10%; in data set [10] it was 38%. Also, the inhibition at 100 µM in [2] came to 2.5%; in [3] it was 13%; in data set [4] it was 0%. The cytotoxicity at 21 h, 100 µM in data set [6] came out at 12%; in [7], 0%. In data set [9], the inhibition at 30 µM amounted to 0%.
Consider `COC(=O)C1(C)CC(c2ccoc2)=NO1` (stereo not given), for which the inhibition in data set [1] worked out at 22%; in data set [5], 0%; in data set [8] it was 22%; in data set [10], 0%. Besides, the inhibition at 100 µM was 30% in data set [2], 39% in data set [3] and 11% in data set [4]. Moreover, the cytotoxicity at 21 h, 100 µM in data set [6] stood at 1%; in data set [7], 4%. For the same compound, the inhibition at 30 µM in data set [9] came to 0%.
In the case of `COC(=O)CC1(C(=O)OC)CC(c2ccoc2)=NO1` (stereo not given), the inhibition in [1] is 47%; in data set [5] it was 0%; in [8] it was 23%; in data set [10] it was 0%. For the same compound, the inhibition at 100 µM in data set [2] stood at 4%; in data set [3], 57%; in data set [4] it was 60%. In addition, the cytotoxicity at 21 h, 100 µM in [6] was 8%; in data set [7] it was 7%. The inhibition at 30 µM in data set [9] was 53%.
Take `c1ccc(C2CC(c3ccoc3)=NO2)cc1` (stereo not given): the inhibition in data set [1] was determined as 59%; in data set [5], 68%; in data set [8] it was 17%; in [10], 37%. The inhibition at 100 µM in [2] was found to be 50%; in data set [3], 31%; in data set [4], 14%. For the same compound, the cytotoxicity at 21 h, 100 µM in data set [6] came out at 16%; in [7], 0%. In [9], the inhibition at 30 µM turned out to be 5%.
As to `FC(F)(F)c1cccc(-n2cc(C3=NOC(C4CCCCC4)C3)c3ccccc32)c1` (stereo not given), the inhibition in [1] came to 100%; in data set [5] it was 22%; in data set [8], 28%; in [10], 1%. Besides, the figures for the inhibition at 100 µM in data set [2], in data set [3] and in [4] were 27%, 43% and 19%, respectively. The results for the cytotoxicity at 21 h, 100 µM in data set [6] and in [7] were 7% and 15%, respectively. For the same compound, the inhibition at 30 µM in data set [9] stood at 4%.
Consider `O=C1c2ccccc2C(=O)N1C1CC(c2cn(-c3cccc(C(F)(F)F)c3)c3ccccc23)=NO1` (stereo not given), for which the inhibition is 47% in data set [1], 0% in data set [5], 8% in [8] and 0% in data set [10]. The inhibition at 100 µM stood at 63% in data set [2], 43% in data set [3] and 24% in data set [4]. Moreover, the cytotoxicity at 21 h, 100 µM was found to be 11% in data set [6] and 0% in data set [7]. Moreover, in [9], the inhibition at 30 µM worked out at 6%.
Take `O=C1CCCN1C1CC(c2ccoc2)=NO1` (stereo not given): the inhibition in data set [1] worked out at 18%; in data set [5], 36%; in data set [8] it was 0%; in data set [10] it was 0%. Further, the inhibition at 100 µM was 28% in [2], 22% in data set [3] and 49% in data set [4]. Also, the results for the cytotoxicity at 21 h, 100 µM in [6] and in [7] were 5% and 0%, respectively. Moreover, the inhibition at 30 µM in data set [9] stood at 43%.
As to `CC1(C(=O)O)CC(c2ccoc2)=NO1` (stereo not given), the inhibition came out at 29% in data set [1], 21% in data set [5], 18% in data set [8] and 0% in data set [10]. Also, the inhibition at 100 µM in [2] amounted to 32%; in data set [3], 15%; in data set [4] it was 7%. For the same compound, the cytotoxicity at 21 h, 100 µM in data set [6] was 10%; in [7], 2%. Further, the inhibition at 30 µM in [9] was determined as 14%.
On to `FC(F)(F)c1cccc(-n2cc(C3=NOC(CN4CCOCC4)C3)c3ccccc32)c1` (stereo not given), for which the inhibition in [1] was determined as 100%; in data set [5], 0%; in [8] it was 10%; in data set [10], 0%. The inhibition at 100 µM in [2] turned out to be 42%; in data set [3], 51%; in data set [4] it was 36%. In addition, the cytotoxicity at 21 h, 100 µM in data set [6] turned out to be 10%; in [7], 65%. In addition, in data set [9], the inhibition at 30 µM came out at 22%.
As to `COc1ccc(C2CC(c3cn(-c4cccc(C(F)(F)F)c4)c4ccccc34)=NO2)cc1` (stereo not given), the inhibition was found to be 97% in [1], 1% in data set [5], 55% in [8] and 0% in [10]. In addition, the inhibition at 100 µM came out at 23% in data set [2], 37% in data set [3] and 13% in [4]. The cytotoxicity at 21 h, 100 µM is 3% in data set [6] and 0% in data set [7]. Moreover, the inhibition at 30 µM in data set [9] came to 5%.
With `COC(=O)CC1(C(=O)OC)CC(c2cn(-c3cccc(C(F)(F)F)c3)c3ccccc23)=NO1` (stereo not given), the inhibition in [1] was determined as 76%; in data set [5], 10%; in data set [8], 6%; in [10], 0%. For the same compound, the inhibition at 100 µM in data set [2] came out at 0%; in [3], 23%; in [4], 4%. Also, the values for the cytotoxicity at 21 h, 100 µM in data set [6] and in data set [7] were 2% and 0%, respectively. Also, the inhibition at 30 µM in data set [9] was 0%.
